Values after ≈ are worked out from the molar mass of the structure shown.
Test system: Escherichia coli
Test: minimum inhibitory concentration (MIC)
Experimental: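 Broth microdilution MIC (Sensititre BOPO7F bovine plate, CLSI methods) of 19 antimicrobials against field isolates of P. multocida, M. haemolytica, H. somni (deep nasopharyngeal swabs) and E. coli, Enterococcus spp. (rectal swabs) from weaned dairy heifers. Incubation 16-24 h at 35 C. MIC is the lowest concentration preventing visible growth. Values with <= or > lie at the tested range limits. Trimethoprim-sulfamethoxazole is given as the trimethoprim component of a 1:19 mixture.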

CO/N=C(\C(=O)N[C@@H]1C(=O)N2C(C(=O)O)=C(CSC(=O)c3ccco3)CS[C@H]12)c1csc(N)n1 [Ceftiofur]
Details	minimum inhibitory concentration [µg/mL]
isolate (source animal id): 8	0.5 (≈ 0.955 µM)
isolate (source animal id): 9	1 (≈ 1.91 µM)
isolate (source animal id): 10	≤ 0.25
isolate (source animal id): 11	≤ 0.25
isolate (source animal id): 12	0.5 (≈ 0.955 µM)
isolate (source animal id): 13	> 8
isolate (source animal id): 14	> 8
isolate (source animal id): 15	≤ 0.25
isolate (source animal id): 16	0.5 (≈ 0.955 µM)
isolate (source animal id): 98	0.5 (≈ 0.955 µM)
isolate (source animal id): 99	0.5 (≈ 0.955 µM)
isolate (source animal id): 100	≤ 0.25
isolate (source animal id): 101	≤ 0.25
isolate (source animal id): 102	0.5 (≈ 0.955 µM)
isolate (source animal id): 103	0.5 (≈ 0.955 µM)
isolate (source animal id): 104	≤ 0.25
isolate (source animal id): 105	0.5 (≈ 0.955 µM)
isolate (source animal id): 106	0.5 (≈ 0.955 µM)
isolate (source animal id): 107	≤ 0.25
isolate (source animal id): 108	≤ 0.25
isolate (source animal id): 109	≤ 0.25
isolate (source animal id): 110	0.5 (≈ 0.955 µM)
isolate (source animal id): 111	≤ 0.25
isolate (source animal id): 112	≤ 0.25
isolate (source animal id): 113	0.5 (≈ 0.955 µM)
isolate (source animal id): 114	0.5 (≈ 0.955 µM)
isolate (source animal id): 115	4 (≈ 7.64 µM)
isolate (source animal id): 116	0.5 (≈ 0.955 µM)
isolate (source animal id): 117	≤ 0.25
isolate (source animal id): 118	0.5 (≈ 0.955 µM)
isolate (source animal id): 119	1 (≈ 1.91 µM)
isolate (source animal id): 120	0.5 (≈ 0.955 µM)
isolate (source animal id): 121	0.5 (≈ 0.955 µM)
isolate (source animal id): 122	0.5 (≈ 0.955 µM)
isolate (source animal id): 123	≤ 0.25
isolate (source animal id): 124	0.5 (≈ 0.955 µM)
isolate (source animal id): 125	0.5 (≈ 0.955 µM)
isolate (source animal id): 126	0.5 (≈ 0.955 µM)
isolate (source animal id): 127	0.5 (≈ 0.955 µM)
isolate (source animal id): 128	8 (≈ 15.3 µM)
isolate (source animal id): 129	0.5 (≈ 0.955 µM)
isolate (source animal id): 130	0.5 (≈ 0.955 µM)
isolate (source animal id): 131	0.5 (≈ 0.955 µM)
isolate (source animal id): 132	> 8
isolate (source animal id): 133	0.5 (≈ 0.955 µM)
isolate (source animal id): 134	0.5 (≈ 0.955 µM)
isolate (source animal id): 135	0.5 (≈ 0.955 µM)
isolate (source animal id): 136	0.5 (≈ 0.955 µM)
isolate (source animal id): 137	0.5 (≈ 0.955 µM)
isolate (source animal id): 138	≤ 0.25
isolate (source animal id): 139	≤ 0.25
isolate (source animal id): 140	0.5 (≈ 0.955 µM)
isolate (source animal id): 141	0.5 (≈ 0.955 µM)
isolate (source animal id): 142	0.5 (≈ 0.955 µM)
isolate (source animal id): 143	2 (≈ 3.82 µM)
isolate (source animal id): 144	8 (≈ 15.3 µM)
isolate (source animal id): 145	0.5 (≈ 0.955 µM)
isolate (source animal id): 146	≤ 0.25
isolate (source animal id): 147	8 (≈ 15.3 µM)
isolate (source animal id): 148	≤ 0.25
isolate (source animal id): 149	≤ 0.25
isolate (source animal id): 150	0.5 (≈ 0.955 µM)
isolate (source animal id): 151	≤ 0.25
isolate (source animal id): 152	≤ 0.25
isolate (source animal id): 153	≤ 0.25
isolate (source animal id): 154	0.5 (≈ 0.955 µM)
isolate (source animal id): 155	≤ 0.25
isolate (source animal id): 156	8 (≈ 15.3 µM)
isolate (source animal id): 157	0.5 (≈ 0.955 µM)
isolate (source animal id): 158	0.5 (≈ 0.955 µM)
isolate (source animal id): 159	≤ 0.25
isolate (source animal id): 160	≤ 0.25
isolate (source animal id): 161	≤ 0.25
isolate (source animal id): 162	8 (≈ 15.3 µM)
isolate (source animal id): 163	0.5 (≈ 0.955 µM)
isolate (source animal id): 164	≤ 0.25
isolate (source animal id): 165	≤ 0.25
isolate (source animal id): 166	≤ 0.25
isolate (source animal id): 167	0.5 (≈ 0.955 µM)
isolate (source animal id): 168	≤ 0.25
isolate (source animal id): 169	0.5 (≈ 0.955 µM)
isolate (source animal id): 170	0.5 (≈ 0.955 µM)
isolate (source animal id): 171	0.5 (≈ 0.955 µM)
isolate (source animal id): 172	≤ 0.25
isolate (source animal id): 173	0.5 (≈ 0.955 µM)
isolate (source animal id): 174	0.5 (≈ 0.955 µM)
isolate (source animal id): 175	0.5 (≈ 0.955 µM)
isolate (source animal id): 176	0.5 (≈ 0.955 µM)
isolate (source animal id): 177	8 (≈ 15.3 µM)
isolate (source animal id): 178	0.5 (≈ 0.955 µM)
isolate (source animal id): 179	≤ 0.25
isolate (source animal id): 180	0.5 (≈ 0.955 µM)
isolate (source animal id): 181	≤ 0.25
isolate (source animal id): 182	0.5 (≈ 0.955 µM)
isolate (source animal id): 183	0.5 (≈ 0.955 µM)
isolate (source animal id): 184	0.5 (≈ 0.955 µM)
isolate (source animal id): 185	0.5 (≈ 0.955 µM)
isolate (source animal id): 186	0.5 (≈ 0.955 µM)
isolate (source animal id): 187	≤ 0.25
isolate (source animal id): 188	> 8

CCC[C@@H]1C[C@@H](C(=O)N[C@@H]([C@H]2O[C@H](SC)[C@H](O)[C@@H](O)[C@H]2O)[C@H](C)Cl)N(C)C1 [Clindamycin]
Details	minimum inhibitory concentration [µg/mL]
isolate (source animal id): 8	> 16
isolate (source animal id): 9	> 16
isolate (source animal id): 10	> 16
isolate (source animal id): 11	> 16
isolate (source animal id): 12	> 16
isolate (source animal id): 13	> 16
isolate (source animal id): 14	> 16
isolate (source animal id): 15	> 16
isolate (source animal id): 16	> 16
isolate (source animal id): 98	> 16
isolate (source animal id): 99	> 16
isolate (source animal id): 100	> 16
isolate (source animal id): 101	> 16
isolate (source animal id): 102	> 16
isolate (source animal id): 103	> 16
isolate (source animal id): 104	> 16
isolate (source animal id): 105	> 16
isolate (source animal id): 106	> 16
isolate (source animal id): 107	> 16
isolate (source animal id): 108	> 16
isolate (source animal id): 109	> 16
isolate (source animal id): 110	> 16
isolate (source animal id): 111	> 16
isolate (source animal id): 112	> 16
isolate (source animal id): 113	> 16
isolate (source animal id): 114	> 16
isolate (source animal id): 115	> 16
isolate (source animal id): 116	> 16
isolate (source animal id): 117	> 16
isolate (source animal id): 118	> 16
isolate (source animal id): 119	> 16
isolate (source animal id): 120	> 16
isolate (source animal id): 121	> 16
isolate (source animal id): 122	> 16
isolate (source animal id): 123	> 16
isolate (source animal id): 124	> 16
isolate (source animal id): 125	> 16
isolate (source animal id): 126	> 16
isolate (source animal id): 127	> 16
isolate (source animal id): 128	> 16
isolate (source animal id): 129	> 16
isolate (source animal id): 130	> 16
isolate (source animal id): 131	> 16
isolate (source animal id): 132	> 16
isolate (source animal id): 133	> 16
isolate (source animal id): 134	> 16
isolate (source animal id): 135	> 16
isolate (source animal id): 136	> 16
isolate (source animal id): 137	> 16
isolate (source animal id): 138	> 16
isolate (source animal id): 139	> 16
isolate (source animal id): 140	> 16
isolate (source animal id): 141	> 16
isolate (source animal id): 142	> 16
isolate (source animal id): 143	> 16
isolate (source animal id): 144	> 16
isolate (source animal id): 145	> 16
isolate (source animal id): 146	> 16
isolate (source animal id): 147	> 16
isolate (source animal id): 148	> 16
isolate (source animal id): 149	> 16
isolate (source animal id): 150	> 16
isolate (source animal id): 151	> 16
isolate (source animal id): 152	> 16
isolate (source animal id): 153	> 16
isolate (source animal id): 154	> 16
isolate (source animal id): 155	> 16
isolate (source animal id): 156	> 16
isolate (source animal id): 157	> 16
isolate (source animal id): 158	> 16
isolate (source animal id): 159	> 16
isolate (source animal id): 160	> 16
isolate (source animal id): 161	> 16
isolate (source animal id): 162	> 16
isolate (source animal id): 163	> 16
isolate (source animal id): 164	> 16
isolate (source animal id): 165	> 16
isolate (source animal id): 166	> 16
isolate (source animal id): 167	> 16
isolate (source animal id): 168	> 16
isolate (source animal id): 169	> 16
isolate (source animal id): 170	> 16
isolate (source animal id): 171	> 16
isolate (source animal id): 172	> 16
isolate (source animal id): 173	> 16
isolate (source animal id): 174	> 16
isolate (source animal id): 175	> 16
isolate (source animal id): 176	> 16
isolate (source animal id): 177	> 16
isolate (source animal id): 178	> 16
isolate (source animal id): 179	> 16
isolate (source animal id): 180	> 16
isolate (source animal id): 181	> 16
isolate (source animal id): 182	> 16
isolate (source animal id): 183	> 16
isolate (source animal id): 184	> 16
isolate (source animal id): 185	> 16
isolate (source animal id): 186	> 16
isolate (source animal id): 187	> 16
isolate (source animal id): 188	> 16

— the supplement of paper PMC8612539
